Numbered stars: 1 amine (or outer) side, 2 acyl side, 3 side chain; on linkers, the order of the positions; unused ones are H or OH. Bridge positions count the residues as written; N and C are the ends. Square brackets hold non-standard residues; d marks the D form. Peptide text beside a SMILES is read from it. CO = O=C([*:1])[*:2]; Nlys = NCCCCNCC(=O)O
Assays:
JAK3 = target: T1, JAK3 (Homo sapiens, UniProt P52333); assay: PhosphoSens CSox-based kinase assay, JAK3; assay type: biochemical; settings: 1 mM, but not 0.1 mM; Figure 7
T1 construct: purchased Carna 08-046
Protocol: (§1) Kinase activity was measured using the PhosphoSenstechnology (AssayQuant Technologies Inc., Marlborough, MA) as detailed in the Supporting Information. […]
(§2) Visabron c (4-4) safety by in vitro evaluation using PhosphoSens - CSox based kinase assays:
(§3) A powerful method was used to measure the activity of recombinant protein kinases using a homogeneous and continuous (kinetic) format, where the level of chelation-enhanced fluorescence (CHEF) that is directly proportional to the amount of phosphorylated, real-time sensors consisting of sulfonamido-oxine (Sox) chromophore, linked to a peptide or protein substrates of selective kinases 6. […]
(§4) Kinase activity measurements: Kinase activity was measured continuously using the PhosphoSens® technology (AssayQuant Technologies Inc., Marlborough, MA) according to the manufacturers’ recommendations. This one-step homogeneous assay format uses chelation -enhanced fluorescence via optimized substrate sensors containing the unnatural fluorogenic amino -acid Sox. […]
(§5) Final reaction conditions : Protein kinase activity was determined in 54 mM HEPES, pH 7.5, 1 mM ATP, 1.2 mM DTT, 0.012% Brij-35, 0.52 mM EGTA, 10 mM MgCl2, 1% glycerol, 0.2mg/ml BSA, and 15 μM Sox -based sensor. […]

[1] = system: cyclooxygenase (COX) enzymes; assay: SafetyScreen44 enzyme inhibition, cyclooxygenases; assay type: biochemical; settings: 1 mM; Figure 6
Protocol: (§6) Screening of potentially significant off-target effects to binding and enzyme targets was performed via SafetyScreen44 offered by Eurofins Cerep-Panlabs. Visabron c (4–4) was tested at 1 and 0.1 mM. Compound binding was calculated as the percentage of inhibition of the binding of a radioactively labeled ligand specific for each target. The compound enzyme inhibitory effect was calculated as the percentage of inhibition of control enzyme activity. Results showing inhibition higher than 40% were considered to represent significant effects of the tested compound. Results showing inhibition lower than 25% as obtained with 0.1 mM Visabron c (4–4) were not considered significant and were mostly attributable to the variability of the signal around the control level. In each experiment, the respective reference compound was tested concurrently with visabron c (4–4), and the data were compared with historical values determined at Eurofins. The experiment was statistically accepted in accordance with the Eurofins validation standard operating procedure.

C-Raf = target: T2, C-Raf (Homo sapiens, UniProt P04049, Y340D/Y341D); assay: PhosphoSens CSox-based kinase assay, C-Raf; assay type: biochemical; settings: 1 mM, but not 0.1 mM; Figure 7
T2 construct: purchased Thermo PV3805
Protocol: as §1, §2, §3, §4, §5

Abl = target: T3, Abl (Homo sapiens, UniProt P00519); assay: PhosphoSens CSox-based kinase assay, Abl; assay type: biochemical; settings: 1 mM, but not 0.1 mM; Figure 7
T3 construct: purchased Carna 08-001
Protocol: as §1, §2, §3, §4, §5

[2] = system: panel of 20 tyrosine protein kinases of immune cells; assay type: biochemical; settings: concentration a hundred-fold higher than the IC50 for inhibition of α4β1 integrin (0.1 mM)
Protocol: as §1, §2, §3, §4, §5

Lck kinase = target: T4, Lck kinase (Homo sapiens, UniProt P06239); assay: SafetyScreen44 enzyme inhibition, Lck kinase; assay type: biochemical
T4 construct: purchased Eurofins Cerep-Panlabs (contract screen) SafetyScreen44
Protocol: as §6

LynA = target: T5, LynA (Homo sapiens, UniProt P07948); assay: PhosphoSens CSox-based kinase assay, LynA; assay type: biochemical; settings: 1 mM, but not 0.1 mM; Figure 7
T5 construct: purchased Carna 08-171
Protocol: as §1, §2, §3, §4, §5

EGFR = target: T6, EGFR (Homo sapiens, UniProt P00533); assay: PhosphoSens CSox-based kinase assay, EGFR; assay type: biochemical; settings: 1 mM, but not 0.1 mM; Figure 7
T6 construct: purchased BPS BS 40187
Protocol: as §1, §2, §3, §4, §5

[3] = system: experimental autoimmune encephalomyelitis (EAE); assay: MOG-induced EAE in C57BL/6 mice; assay type: in vivo, C57Bl/6 female mice
Protocol: EAE was induced in C57bl/6 mice by immunization with MOG/CFA and injection of pertussis toxin as described in the Experimental Section. The body weight, neurological scores, and disease incidence were monitored daily for 35 days. Immunized mice (n = 10–14 in each group) were treated (i.p. injection) at time points indicated by arrows. Histology was performed on day 35 on all groups. Data shown are the mean ± SEM, evaluated by the nonparametric Kruskal–Wallis test followed by a Dunn’s postanalysis. All p-values <0.05 were considered statistically significant. (A) Neurological clinical score. Visabron c (4–4) (green) at a cumulative dose of 25 mg/kg (5 mg/kg every other day, for 8 days) and natalizumab (orange) at a cumulative dose of 120 mg/kg (24 mg/kg every other day, for 8 days). […] (E) Dose–response of treatment with visabron c (4–4). Inset: Mean neurological score of the different treatment groups at disease onset (days 15–17). […] (F) Inflammatory infiltrates (blue) in the spinal cord were evaluated by cell counting in H&E stained slices.
C57Bl/6 female mice, 8 weeks old, obtained from the Harlan animal breeding center were used in the study and were maintained in the SPF unit of the Faculty of Medicine. EAE was induced by s.c. injection of 0.2 mL/mouse emulsion containing 200 μg of MOG35–55 peptide in saline and an equal volume of 5 mg/mL Complete Freund’s Adjuvant (CFA) containing 1 mg/mL heat-killed M. tuberculosis (H37Ra; Difco Laboratories, Detroit, MI) . The emulsification was made from equal parts of oil and liquid portions (1:1) in two syringes connected to each other with Leur lock, transferred to an insulin syringe, and 0.2 mL was injected to the right flank of each mouse. On the day of immunization, pertussis toxin (200 ng/mL) was injected i.p. at a volume dose of 0.2 mL/mouse. The injection of the pertussis toxin (i.p) was repeated after 48 h to boost the immune recognition reaction. From day four, natalizumab and Visabron c (4–4) were injected i.p. each other day, five times, and the weight, the neurological score and the disease incidence of the mice were monitored until 35 days after immunization. EAE scoring system: mice were observed daily for the appearance of neurological symptoms, which were scored as follows: 0, asymptomatic; 1, partial loss of tail tonicity; 1.5, limp tail; 2, hind limb weakness (right reflex); 3, ataxia; 4, early paralysis; 5, full paralysis; and 6, moribund or dead. The disease incidence was calculated as a percentage of the ratio of the number of new diseased mice per number of living mice at each time-point. In experiments to estimate cell infiltration in the spinal cord at 35 days postimmunization, the mice were euthanized by cervical dislocation and lumbar spinal cords were collected.

T4 sequence (P06239 whole entry): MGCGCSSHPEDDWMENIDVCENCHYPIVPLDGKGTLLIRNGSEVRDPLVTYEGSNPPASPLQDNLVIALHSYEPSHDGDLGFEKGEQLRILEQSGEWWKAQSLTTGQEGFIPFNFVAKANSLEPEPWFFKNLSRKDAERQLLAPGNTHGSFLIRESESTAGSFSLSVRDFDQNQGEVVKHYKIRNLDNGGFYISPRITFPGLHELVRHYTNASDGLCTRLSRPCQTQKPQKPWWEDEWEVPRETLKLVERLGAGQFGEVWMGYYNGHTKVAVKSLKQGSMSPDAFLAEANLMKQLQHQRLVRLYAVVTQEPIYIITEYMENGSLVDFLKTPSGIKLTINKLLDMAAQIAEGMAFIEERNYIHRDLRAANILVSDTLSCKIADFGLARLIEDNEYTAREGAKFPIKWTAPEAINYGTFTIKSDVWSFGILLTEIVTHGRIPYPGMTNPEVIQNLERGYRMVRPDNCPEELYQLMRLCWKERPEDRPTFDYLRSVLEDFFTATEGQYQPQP
T1 sequence (P52333 whole entry): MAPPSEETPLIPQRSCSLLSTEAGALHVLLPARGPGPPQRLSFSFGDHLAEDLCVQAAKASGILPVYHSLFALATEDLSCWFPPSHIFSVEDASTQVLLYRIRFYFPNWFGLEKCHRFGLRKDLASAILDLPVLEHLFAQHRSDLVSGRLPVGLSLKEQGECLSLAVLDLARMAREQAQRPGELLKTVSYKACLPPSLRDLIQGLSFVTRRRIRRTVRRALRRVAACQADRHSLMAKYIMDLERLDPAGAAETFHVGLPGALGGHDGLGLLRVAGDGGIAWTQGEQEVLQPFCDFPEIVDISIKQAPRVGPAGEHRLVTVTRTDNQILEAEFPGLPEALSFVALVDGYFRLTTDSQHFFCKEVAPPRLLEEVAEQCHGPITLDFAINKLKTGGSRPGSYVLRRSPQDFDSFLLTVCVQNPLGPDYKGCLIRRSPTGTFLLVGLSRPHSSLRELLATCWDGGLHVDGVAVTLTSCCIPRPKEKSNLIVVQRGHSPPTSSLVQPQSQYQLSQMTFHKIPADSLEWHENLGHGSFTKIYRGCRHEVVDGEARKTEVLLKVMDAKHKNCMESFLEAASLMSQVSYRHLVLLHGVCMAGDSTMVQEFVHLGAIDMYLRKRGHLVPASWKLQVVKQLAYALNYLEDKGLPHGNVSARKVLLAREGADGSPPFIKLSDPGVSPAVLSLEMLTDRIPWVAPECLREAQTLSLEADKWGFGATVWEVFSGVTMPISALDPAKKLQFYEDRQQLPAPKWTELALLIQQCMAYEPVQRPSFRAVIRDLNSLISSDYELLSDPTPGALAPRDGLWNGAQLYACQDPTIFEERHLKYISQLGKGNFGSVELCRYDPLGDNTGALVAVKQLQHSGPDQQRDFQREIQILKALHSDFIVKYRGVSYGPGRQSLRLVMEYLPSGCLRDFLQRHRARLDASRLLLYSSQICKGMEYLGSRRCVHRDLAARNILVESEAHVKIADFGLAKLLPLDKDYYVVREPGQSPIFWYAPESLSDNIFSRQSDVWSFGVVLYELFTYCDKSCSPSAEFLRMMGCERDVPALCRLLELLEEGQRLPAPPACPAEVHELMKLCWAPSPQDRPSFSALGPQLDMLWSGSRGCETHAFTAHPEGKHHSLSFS
T2 sequence (P04049 whole entry Y340D/Y341D): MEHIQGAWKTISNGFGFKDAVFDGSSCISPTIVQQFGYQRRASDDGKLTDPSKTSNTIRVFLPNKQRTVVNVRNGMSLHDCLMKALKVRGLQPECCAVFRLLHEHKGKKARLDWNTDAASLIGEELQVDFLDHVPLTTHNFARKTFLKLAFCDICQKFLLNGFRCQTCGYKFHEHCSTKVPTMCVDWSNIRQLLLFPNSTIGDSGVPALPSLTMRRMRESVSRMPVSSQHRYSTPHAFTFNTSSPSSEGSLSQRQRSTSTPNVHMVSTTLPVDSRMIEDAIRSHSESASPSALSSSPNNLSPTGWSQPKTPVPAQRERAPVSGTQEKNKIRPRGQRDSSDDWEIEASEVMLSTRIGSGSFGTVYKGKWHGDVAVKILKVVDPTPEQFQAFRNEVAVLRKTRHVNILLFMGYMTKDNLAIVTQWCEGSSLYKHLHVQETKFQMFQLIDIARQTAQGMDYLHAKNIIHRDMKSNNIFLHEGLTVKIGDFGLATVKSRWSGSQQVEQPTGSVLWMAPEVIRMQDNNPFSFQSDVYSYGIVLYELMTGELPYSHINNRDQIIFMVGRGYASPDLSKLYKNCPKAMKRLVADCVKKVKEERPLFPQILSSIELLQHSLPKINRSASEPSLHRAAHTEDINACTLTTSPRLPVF
T6 sequence (P00533 25-1210): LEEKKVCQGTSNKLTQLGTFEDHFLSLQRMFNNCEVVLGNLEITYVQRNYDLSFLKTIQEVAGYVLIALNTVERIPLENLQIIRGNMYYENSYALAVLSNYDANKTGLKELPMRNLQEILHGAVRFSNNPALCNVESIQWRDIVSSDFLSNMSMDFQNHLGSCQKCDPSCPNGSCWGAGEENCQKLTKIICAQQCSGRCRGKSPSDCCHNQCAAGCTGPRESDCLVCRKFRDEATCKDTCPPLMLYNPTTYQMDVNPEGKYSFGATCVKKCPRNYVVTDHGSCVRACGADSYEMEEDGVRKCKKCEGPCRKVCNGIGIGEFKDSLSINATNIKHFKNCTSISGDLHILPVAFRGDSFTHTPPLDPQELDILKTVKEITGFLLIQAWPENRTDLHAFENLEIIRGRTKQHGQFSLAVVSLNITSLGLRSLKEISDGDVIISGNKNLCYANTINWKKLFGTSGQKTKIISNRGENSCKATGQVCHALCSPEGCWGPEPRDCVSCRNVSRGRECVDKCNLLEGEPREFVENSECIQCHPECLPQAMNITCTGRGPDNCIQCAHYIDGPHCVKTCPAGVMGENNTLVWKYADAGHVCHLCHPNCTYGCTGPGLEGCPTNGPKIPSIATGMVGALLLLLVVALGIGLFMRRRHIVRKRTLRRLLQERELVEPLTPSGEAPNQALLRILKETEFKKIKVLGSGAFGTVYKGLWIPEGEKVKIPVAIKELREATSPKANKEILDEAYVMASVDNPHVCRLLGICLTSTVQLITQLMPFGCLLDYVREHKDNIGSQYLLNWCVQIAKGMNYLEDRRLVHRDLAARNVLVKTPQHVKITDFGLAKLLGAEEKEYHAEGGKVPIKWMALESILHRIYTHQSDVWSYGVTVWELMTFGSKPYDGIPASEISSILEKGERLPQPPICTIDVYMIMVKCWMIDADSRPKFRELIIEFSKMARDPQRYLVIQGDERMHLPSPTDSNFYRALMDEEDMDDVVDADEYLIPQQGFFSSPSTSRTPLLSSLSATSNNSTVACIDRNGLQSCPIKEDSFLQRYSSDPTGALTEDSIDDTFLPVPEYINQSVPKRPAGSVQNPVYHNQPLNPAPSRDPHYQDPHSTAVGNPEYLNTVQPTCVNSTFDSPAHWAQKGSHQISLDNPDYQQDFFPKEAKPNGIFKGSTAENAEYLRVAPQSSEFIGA
T5 sequence (P07948 whole entry): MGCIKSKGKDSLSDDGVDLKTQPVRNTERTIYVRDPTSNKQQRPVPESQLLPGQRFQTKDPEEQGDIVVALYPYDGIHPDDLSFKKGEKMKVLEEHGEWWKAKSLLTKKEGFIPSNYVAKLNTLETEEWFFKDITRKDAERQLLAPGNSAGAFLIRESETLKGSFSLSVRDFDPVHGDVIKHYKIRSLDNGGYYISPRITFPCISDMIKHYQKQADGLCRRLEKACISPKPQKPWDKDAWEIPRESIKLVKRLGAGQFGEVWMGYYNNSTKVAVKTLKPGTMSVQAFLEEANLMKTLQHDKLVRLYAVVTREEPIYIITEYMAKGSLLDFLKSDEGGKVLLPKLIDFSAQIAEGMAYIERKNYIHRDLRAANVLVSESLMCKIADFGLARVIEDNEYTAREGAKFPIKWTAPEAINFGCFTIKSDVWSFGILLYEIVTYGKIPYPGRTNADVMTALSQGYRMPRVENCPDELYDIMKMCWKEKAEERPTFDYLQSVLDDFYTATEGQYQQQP

Row | Compound | inhibition at 1000 µM (JAK3) | Inhibition of cyclooxygenase (COX) enzymes [1] | inhibition at 1000 µM (C-Raf) | inhibition at 1000 µM (Abl) | Targeting of leukocyte tyrosine protein kinases [2] | Inhibitory effect on Lck (Lck kinase; 100 μM, data not shown) | Inhibition of Lck kinase activity (Lck kinase; 1 mM, Figure 6) | inhibition at 1000 µM (LynA) | inhibition at 1000 µM (EGFR) | EAE-associated body weight decrease ([3]; 13–16 to 35 days postimmunization, visabron c (4–4) cumulative 25 mg/kg, natalizumab 120 mg/kg i.p., Figure 3B) | Disease incidence vs EAE disease group ([3]; Figure 3C) | Cumulative neurological scores vs EAE/PBS group ([3]; at 35 days postimmunization, Figure 3D) | Inflammatory cell infiltration in spinal cord (H&E cell counting) ([3]; day 35, Figure 3F) | Increase in neurological score vs EAE group ([3]; onset (13–16 days) to 35 days postimmunization, i.p., visabron c (4–4) cumulative 25 mg/kg, natalizumab cumulative 120 mg/kg, Figure 3A)
1 | CSCC[C@@H]1NC(=O)[C@H]([C@@H](C)O)NC(=O)CN(C(=O)[C@@H](N)CCCCN)CCCCNC(=O)NCCCCN(CC(=O)N[C@@H](CC(C)C)C(N)=O)C(=O)[C@H](CC(=O)O)NC(=O)[C@H](CC(C)C)NC1=O [visabron c (4–4)] (H-K[Nlys]TMLD[Nlys]L-NH2; linker 2-7 via CO) | 25 to 40% | moderately inhibited | 25 to 40% | 25 to 40% | did not target | not observed | strongly inhibited | 25 to 40% | 25 to 40% | – | – | – | – | –
2 | natalizumab: clinical-grade monoclonal antibody anti-α4β1 produced by Biogen Co. [reference compound] | – | – | – | – | – | – | – | – | – | significantly decreased | lower disease incidence | significantly decreased | significantly reduced | significantly lower

From article PMC8717366, “Synthesis and Pharmacological Characterization of Visabron, a Backbone Cyclic Peptide Dual Antagonist of α4β1 (VLA-4)/α9β1 Integrin for Therapy of Multiple Sclerosis” (JACS Au, 2021)
